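Values below derive from 48-hour exposures of cells grown in 96-well plates, with endpoints linearly interpolated between the two concentrations bracketing the appropriate inhibition level. The concentration for 50% growth inhibition is given as GI50. TGI is the concentration that stops growth completely.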
Assays:
Assay in all cases: NCI tumour cell line growth inhibition, 48 h
786-0 renal = tested on: 786-0 renal
A498 renal = tested on: A498 renal
A549 NSCLC = tested on: A549 NSCLC
ACHN renal = tested on: ACHN renal
BT-549 breast = tested on: BT-549 breast
CAKI-1 renal = tested on: CAKI-1 renal
CCRF-CEM leukemia = tested on: CCRF-CEM leukemia
COLO 205 colon = tested on: COLO 205 colon
DU-145 prostate = tested on: DU-145 prostate
EKVX NSCLC = tested on: EKVX NSCLC
HCC-2998 colon = tested on: HCC-2998 colon
HCT-116 colon = tested on: HCT-116 colon
HCT-15 colon = tested on: HCT-15 colon
HL-60(TB) leukemia = tested on: HL-60(TB) leukemia
HOP-62 NSCLC = tested on: HOP-62 NSCLC
HOP-92 NSCLC = tested on: HOP-92 NSCLC
HS 578T breast = tested on: HS 578T breast
HT29 colon = tested on: HT29 colon
IGROV1 ovarian = tested on: IGROV1 ovarian
K-562 leukemia = tested on: K-562 leukemia
KM12 colon = tested on: KM12 colon
LOX IMVI melanoma = tested on: LOX IMVI melanoma
M14 melanoma = tested on: M14 melanoma
MALME-3M melanoma = tested on: MALME-3M melanoma
MCF7 breast = tested on: MCF7 breast
MDA-MB-231 breast = tested on: MDA-MB-231 breast
MDA-MB-435 = tested on: MDA-MB-435
MOLT-4 leukemia = tested on: MOLT-4 leukemia
NCI-H226 lung = tested on: NCI-H226 lung
NCI-H23 lung = tested on: NCI-H23 lung
NCI-H460 lung = tested on: NCI-H460 lung
NCI-H522 lung = tested on: NCI-H522 lung
NCI/ADR-RES ovarian = tested on: NCI/ADR-RES ovarian
OVCAR-3 ovarian = tested on: OVCAR-3 ovarian
OVCAR-4 ovarian = tested on: OVCAR-4 ovarian
OVCAR-5 ovarian = tested on: OVCAR-5 ovarian
OVCAR-8 ovarian = tested on: OVCAR-8 ovarian
PC-3 prostate = tested on: PC-3 prostate
RPMI-8226 leukemia = tested on: RPMI-8226 leukemia
RXF 393 renal = tested on: RXF 393 renal
SF-268 CNS = tested on: SF-268 CNS
SF-295 CNS = tested on: SF-295 CNS
SF-539 CNS = tested on: SF-539 CNS
SK-MEL-2 melanoma = tested on: SK-MEL-2 melanoma
SK-MEL-28 melanoma = tested on: SK-MEL-28 melanoma
SK-MEL-5 melanoma = tested on: SK-MEL-5 melanoma
SK-OV-3 ovarian = tested on: SK-OV-3 ovarian
SN12C renal = tested on: SN12C renal
SNB-19 CNS = tested on: SNB-19 CNS
SNB-75 CNS = tested on: SNB-75 CNS
SW-620 colon = tested on: SW-620 colon
TK-10 renal = tested on: TK-10 renal
U251 CNS = tested on: U251 CNS
UACC-257 melanoma = tested on: UACC-257 melanoma
UACC-62 melanoma = tested on: UACC-62 melanoma
UO-31 renal = tested on: UO-31 renal

For `COc1ccc(/C(C)=C(\c2ccc(Cl)cc2)c2ccc(OCCN3CCCC3)cc2)cc1`, the GI50 (786-0 renal) was 2.43 µM, the TGI (786-0 renal) was 6.85 µM and the GI50 (A498 renal) was 4.02 µM. For the same molecule, the TGI (A498 renal) was 8.38 µM, the GI50 (A549 NSCLC) was 3.97 µM and the TGI (A549 NSCLC) was 8.43 µM. The GI50 (ACHN renal) was 5.1 µM, the TGI (ACHN renal) was 9.62 µM and the GI50 (BT-549 breast) was 3.82 µM. It also gave a TGI (BT-549 breast) of 8.09 µM, a GI50 (CAKI-1 renal) of 4.85 µM and a TGI (CAKI-1 renal) of 9.29 µM. The GI50 (CCRF-CEM leukemia) was 3.79 µM, the TGI (CCRF-CEM leukemia) was 11.4 µM and the GI50 (COLO 205 colon) was 3.57 µM. The TGI (COLO 205 colon) was 7.74 µM, the GI50 (DU-145 prostate) was 4.89 µM and the TGI (DU-145 prostate) was 9.4 µM. It also gave a GI50 (EKVX NSCLC) of 2.97 µM, a TGI (EKVX NSCLC) of 7.3 µM and a GI50 (HCC-2998 colon) of 3.06 µM. It also gave a TGI (HCC-2998 colon) of 7.41 µM, a GI50 (HCT-116 colon) of 1.55 µM and a TGI (HCT-116 colon) of 5.78 µM. The GI50 (HCT-15 colon) was 1.09 µM, the TGI (HCT-15 colon) was 4.35 µM and the GI50 (HL-60(TB) leukemia) was 4.57 µM. For the same molecule, the TGI (HL-60(TB) leukemia) was 10.9 µM, the GI50 (HOP-62 NSCLC) was 4.68 µM and the TGI (HOP-62 NSCLC) was 9.03 µM. For the same molecule, the GI50 (HOP-92 NSCLC) was 4.17 µM, the TGI (HOP-92 NSCLC) was 8.7 µM and the GI50 (HS 578T breast) was 4.71 µM. For the same molecule, the TGI (HS 578T breast) was 11.8 µM, the GI50 (HT29 colon) was 1.15 µM and the TGI (HT29 colon) was 4.08 µM. It also gave a GI50 (IGROV1 ovarian) of 4.13 µM, a TGI (IGROV1 ovarian) of 8.91 µM and a GI50 (K-562 leukemia) of 1.25 µM. The TGI (K-562 leukemia) was 7.23 µM, the GI50 (KM12 colon) was 1.98 µM and the TGI (KM12 colon) was 6.6 µM. It also gave a GI50 (LOX IMVI melanoma) of 1.51 µM, a TGI (LOX IMVI melanoma) of 5.84 µM and a GI50 (M14 melanoma) of 0.752 µM. It also gave a TGI (M14 melanoma) of 1.95 µM, a GI50 (MALME-3M melanoma) of 2.72 µM and a TGI (MALME-3M melanoma) of 7.61 µM. The GI50 (MCF7 breast) was 0.887 µM, the TGI (MCF7 breast) was 5.83 µM and the GI50 (MDA-MB-231 breast) was 3.64 µM. For the same molecule, the TGI (MDA-MB-231 breast) was 7.8 µM, the GI50 (MDA-MB-435) was 1.84 µM and the TGI (MDA-MB-435) was 6.14 µM. It also gave a GI50 (MOLT-4 leukemia) of 3.88 µM, a TGI (MOLT-4 leukemia) of 10.9 µM and a GI50 (NCI-H226 lung) of 5.54 µM. For the same molecule, the TGI (NCI-H226 lung) was 11.6 µM, the GI50 (NCI-H23 lung) was 4.29 µM and the TGI (NCI-H23 lung) was 8.98 µM. It also gave a GI50 (NCI-H460 lung) of 3.36 µM, a TGI (NCI-H460 lung) of 7.46 µM and a GI50 (NCI-H522 lung) of 4.39 µM. The TGI (NCI-H522 lung) was 9.11 µM, the GI50 (NCI/ADR-RES ovarian) was 4.54 µM and the TGI (NCI/ADR-RES ovarian) was 9.36 µM. The GI50 (OVCAR-3 ovarian) was 5.16 µM, the TGI (OVCAR-3 ovarian) was 9.79 µM and the GI50 (OVCAR-4 ovarian) was 3.61 µM. The TGI (OVCAR-4 ovarian) was 7.64 µM, the GI50 (OVCAR-5 ovarian) was 4.32 µM and the TGI (OVCAR-5 ovarian) was 8.65 µM. It also gave a GI50 (OVCAR-8 ovarian) of 5.2 µM, a TGI (OVCAR-8 ovarian) of 10.2 µM and a GI50 (PC-3 prostate) of 3.39 µM. For the same molecule, the TGI (PC-3 prostate) was 7.52 µM, the GI50 (RPMI-8226 leukemia) was 3.66 µM and the TGI (RPMI-8226 leukemia) was 10 µM. The GI50 (RXF 393 renal) was 3.39 µM, the TGI (RXF 393 renal) was 7.93 µM and the GI50 (SF-268 CNS) was 4.73 µM. It also gave a TGI (SF-268 CNS) of 9.79 µM, a GI50 (SF-295 CNS) of 3.23 µM and a TGI (SF-295 CNS) of 7.25 µM. The GI50 (SF-539 CNS) was 4.32 µM, the TGI (SF-539 CNS) was 8.59 µM and the GI50 (SK-MEL-2 melanoma) was 6.45 µM. The TGI (SK-MEL-2 melanoma) was 11.6 µM, the GI50 (SK-MEL-28 melanoma) was 3.52 µM and the TGI (SK-MEL-28 melanoma) was 7.54 µM. It also gave a GI50 (SK-MEL-5 melanoma) of 1.26 µM, a TGI (SK-MEL-5 melanoma) of 4.64 µM and a GI50 (SK-OV-3 ovarian) of 6.03 µM. The TGI (SK-OV-3 ovarian) was 10.7 µM, the GI50 (SN12C renal) was 4.9 µM and the TGI (SN12C renal) was 9.63 µM. The GI50 (SNB-19 CNS) was 4.54 µM, the TGI (SNB-19 CNS) was 9.09 µM and the GI50 (SNB-75 CNS) was 4.29 µM. For the same molecule, the TGI (SNB-75 CNS) was 8.58 µM, the GI50 (SW-620 colon) was 3.04 µM and the TGI (SW-620 colon) was 7.33 µM. The GI50 (TK-10 renal) was 5.49 µM, the TGI (TK-10 renal) was 10.4 µM and the GI50 (U251 CNS) was 3.9 µM. The TGI (U251 CNS) was 8.3 µM, the GI50 (UACC-257 melanoma) was 4.6 µM and the TGI (UACC-257 melanoma) was 9.24 µM. The GI50 (UACC-62 melanoma) was 2.15 µM, the TGI (UACC-62 melanoma) was 6.53 µM and the GI50 (UO-31 renal) was 2.88 µM. For the same molecule, the TGI (UO-31 renal) was 7.12 µM.
